Data: patent US6566327B1, “Histogranin peptides and their analgesic use” (University of Ottawa, priority 1997, dated 2003)
Marks after values point to notes of the source that are not given here. Square brackets hold non-standard residues; d marks the D form. Peptide text beside a SMILES is read from it.

Key:
Male Swiss Webster mice = experiment: Mouse acetic acid-induced writhing test (i.c.v. peptides); assay type: in vivo; details: for Potency ratio (95% CL): as compared with HN; for AD50 (nmol/mouse) (95% CL): method #2, percent analgesia; for AD50 (nmol/mouse) (95% CL) / ED50 (nmol/mouse) (95% CL): acetic acid i.p. 5 min after peptide, 95% CL in brackets; for ED50 (nmol/mouse) (95% CL): method #1, percent of mice showing analgesia
Experimental: Mice (male 20-25 g, Swiss Webster) were obtained from Charles River (Canadian Breeding Farm, St. Constant, Quebec). They were housed five per cage in a room with controlled temperature (22±2° C.), humidity and artificial light (06.30-19 h). […] The experiments were authorized by the animal care committee of the University of Ottawa in accordance […] guidelines of the Canadian Council on Animal Care. The i.c.v. administrations of the peptides were performed as described by Shukla et al. (Shukla et al., Brain Res. 591, 176, 1992 the disclosure of which is incorporated by reference). Peptides were dissolved in double-distilled sterile water (vehicle) and 10 μl of the peptide solution or vehicle was delivered gradually within approximately 3 sec. […] The administration site was confirmed by injecting Indian ink in preliminary experiments. Mouse Writhing Test: Antinociceptive activity of the peptides was evaluated using the acetic acid-induced writhing test according to a modification (Shukla et al. Brain Research 591, 176, 1992 the disclosure of which is incorporated by reference) of the method of Hayashi and Takemori (Eur.J. Pharmacol. 16 63, 1971 the disclosure of which is incorporated by reference). […] An abdominal stretch is characterized by the contraction of the abdominal muscles, the arching of the back vent-ally such that the abdomen touches the bedding surface and the extension of one or both hind limbs. Mice were used once and then killed immediately. Groups of 10 mice were used for each dose. […] Biochem. Psycholpharmacol. 8:191, 1974, the disclosure of which is incorporated by reference). […] Pharmacol. Exp. Ther. 96 99, 1949, the disclosure of which is incorporated by reference) using procedure 47 of the computer program of Tallarida and Murray (in “Manual of pharmacological calculations with computer programs”, 2nd ed., Springer, New York, 1987, the disclosure of which is incorporated by reference). In the second case (method #2), the percentage of analgesia is calculated for each dose by the formula: [(mean number of writhes in control group-mean number of writhes for the test group)/(mean number of writhes in control group)×100]. […] Pharmacol. Exp. Ther 96, 99, 1949 the disclosure in which is incorporated by reference) using procedure 47 of the computer program of Tallarida and Murray (in “Manual of pharmacological calculations with computer programs”. 2nd ed., Springer, New York, 1987, the disclosure in which is incorporated by reference).

[1] = Solubility noted in the compound description; assay type: physicochemical; details: water and DMSO

Solubility [1]	Compound	Potency ratio (95% CL) (Male Swiss Webster mice; method #2 (AD50))	AD50 (nmol/mouse) (95% CL) (Male Swiss Webster mice)	Potency ratio (95% CL) (Male Swiss Webster mice; method #1 (ED50))	ED50 (nmol/mouse) (95% CL) (Male Swiss Webster mice)
soluble in water and DMSO	N=C(N)NCCC[C@H](NC(=O)CNC(=O)[C@H](CCC(N)=O)NC(=O)[C@@H](N)CCCNC(=N)N)C(=O)O [Peptide 1, H-Arg-Gln-Gly-Arg-OH] (H-RQGR-OH)	1.84 (0.3-12.5)	12.8 (3.6-46.1) nmol/mouse		
Soluble in water and DMSO	N=C(N)NCCC[C@H](NC(=O)CNC(=O)[C@H](CCC(N)=O)NC(=O)CN)C(=O)O [Peptide 2, H-Gly-Gln-Gly-Arg-OH] (H-GQGR-OH)	0.91 (0.11-7.63)	25.9 (5.9-113) nmol/mouse	2.0 (0.6-6.3)	11.3 (4.2-30.4) nmol/mouse
Soluble in water and DMSO	C[C@H](NC(=O)[C@H](CCC(N)=O)NC(=O)CN)C(=O)N[C@@H](CCCN=C(N)N)C(=O)O [Peptide 3, H-Gly-Gln-Ala-Arg-OH] (H-GQAR-OH)				
	C[C@H](NC(=O)[C@H](CCC(N)=O)NC(=O)CN)C(=O)N[C@@H](CCCNC(=N)N)C(=O)O [Peptide 3, H-Gly-Gln-Ala-Arg-OH] (H-GQAR-OH)	6.92 (0.84-56.2)*	3.41 (0.8-14.6) nmol/mouse	5.7 (2.0-15.9)	3.9 (1.7-9.1) nmol/mouse
Soluble in water and DMSO	C[C@H](NC(=O)[C@H](CCC(N)=O)NC(=O)[C@@H](N)CCCNC(=N)N)C(=O)N[C@@H](CCCNC(=N)N)C(=O)O [Peptide 4, H-Arg-Gln-Ala-Arg-OH]	1.86 (0.27-12.8)	12.7 (3.5-46.1) nmol/mouse	4.5 (1.4-14.3)	4.9 (1.8-13.2) nmol/mouse
Soluble in water and DMSO	C[C@@H]1NC(=O)[C@H](CCC(N)=O)NC(=O)CNC(=O)[C@H](CCCNC(=N)N)NC1=O [Peptide 5, cyclic(-Gly-Gln-Ala-Arg-)] (cyclo(ARGQ))	1.77 (0.11-28.1)	13.3 (1.6-114) nmol/mouse	7.7 (1.3-46.6)	2.9 (0.8 -9.8) nmol/mouse
Soluble in water and DMSO	C[C@@H]1NC(=O)[C@H](CCC(N)=O)NC(=O)CNC(=O)[C@H](CCCNC(=N)N)NC(=O)[C@H](C)NC(=O)[C@H](CCC(N)=O)NC(=O)CNC(=O)[C@H](CCCNC(=N)N)NC1=O [Peptide 5B] (cyclo(ARGQARGQ))	0.93 (0.22-3.9)	25.3 (11.6-55.1) nmol/mouse		
Soluble in water and DMSO	C[C@@H]1NC(=O)[C@H](CCC(N)=O)NC(=O)[C@H](CCCNC(=N)N)NC(=O)[C@H](CCCNC(=N)N)NC1=O [Peptide 6, cyclic(-Arg-Gln-Ala-Arg-)]	0.94 (0.22-3.98)	25.1 (11.3-55.6) nmol/mouse		
Soluble in water and DMSO	C[C@@H]1NC(=O)[C@H](CCC(N)=O)NC(=O)[C@H](CCCNC(=N)N)NC(=O)[C@H](CCCNC(=N)N)NC(=O)[C@H](C)NC(=O)[C@H](CCC(N)=O)NC(=O)[C@H](CCCNC(=N)N)NC(=O)[C@H](CCCNC(=N)N)NC1=O [Peptide 6B] (cyclo(ARRQARRQ))				
	N=C(N)NCCC[C@@H]1NC(=O)[C@H](Cc2ccc(O)cc2)NC(=O)[C@H](CCC(N)=O)NC(=O)CNC1=O [Peptide 7, cyclic(-Gly-Gln-Tyr-Arg-)] (cyclo(GQYR))	5.6 (1.25-25)*	4.21 (1.80-9.87) nmol/mouse		
Soluble in water and DMSO	NC(=O)CC[C@@H]1NC(=O)CNC(=O)[C@H](CCCN=C(N)N)NC(=O)[C@H](Cc2ccc(O)cc2)NC1=O [Peptide 7, cyclic(-Gly-Gln-Tyr-Arg-)] (cyclo(GQYR))				
	N=C(N)NCCC[C@H]1NC(=O)[C@H](Cc2ccc(O)cc2)NC(=O)[C@H](CCC(N)=O)NC(=O)CNC1=O [Peptide 8, cyclic(-Gly-Gln-Tyr-D-Arg-)] (cyclo(GQY[dR]))	5.35 (1.04-26.4)*	4.41 (1.7-11.9) nmol/mouse		
	N=C(N)NCCC[C@H]1NC(=O)[C@H](Cc2ccc(O)cc2)NC(=O)[C@@H](CCC(N)=O)NC(=O)CNC1=O [Peptide 9, cyclic(-Gly-D-Gln-Tyr-D-Arg-)] (cyclo(G[dQ]Y[dR]))	10.6 (3.6-31.0)*	2.23 (1.45-3.43) nmol/mouse		
Soluble in water and DMSO	NC(=O)CC[C@H]1NC(=O)CNC(=O)[C@@H](CCCN=C(N)N)NC(=O)[C@H](Cc2ccc(O)cc2)NC1=O [Peptide 9, cyclic(-Gly-D-Gln-Tyr-D-Arg-)] (cyclo(G[dQ]Y[dR]))				
	H-RQGRTLYGF-OH [Peptide 13]	2.43 (0.2-18)	9.7 (2.5-37.4) nmol/mouse	3.0 (0.8-11.2)	7.5 (2.3 -24.4) nmol/mouse
